Results taken from US7973034B2, “Amide, aryl sulfonamide, aryl urea, and α,β-diketone derived carboxylesterase inhibitors, and their methods of use” (priority 2003, dated 2011).
Where two headings read alike, the source gives them in different places.

Assays:
[1] = molecular target: T1, human liver carboxylesterase (hCE1) (Homo sapiens, UniProt P23141); assay: biochemical; format: biochemical
T1 sequence (P23141 18-567): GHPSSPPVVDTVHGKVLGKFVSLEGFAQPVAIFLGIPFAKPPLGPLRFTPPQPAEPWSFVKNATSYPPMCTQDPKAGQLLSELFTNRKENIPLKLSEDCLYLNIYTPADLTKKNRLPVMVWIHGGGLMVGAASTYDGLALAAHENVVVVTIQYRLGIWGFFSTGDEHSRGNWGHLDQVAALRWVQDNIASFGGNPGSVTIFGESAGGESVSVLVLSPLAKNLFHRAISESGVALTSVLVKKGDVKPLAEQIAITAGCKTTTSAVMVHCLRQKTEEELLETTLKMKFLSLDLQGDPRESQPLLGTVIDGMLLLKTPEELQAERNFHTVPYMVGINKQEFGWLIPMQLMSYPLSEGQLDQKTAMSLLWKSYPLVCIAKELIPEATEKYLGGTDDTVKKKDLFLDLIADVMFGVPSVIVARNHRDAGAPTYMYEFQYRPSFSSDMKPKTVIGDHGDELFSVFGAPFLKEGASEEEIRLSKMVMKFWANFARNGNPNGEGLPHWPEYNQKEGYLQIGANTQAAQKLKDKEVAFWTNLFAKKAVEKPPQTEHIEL

[2] = molecular target: T2, rabbit liver carboxylesterase (rCE) (Oryctolagus cuniculus, UniProt P12337); assay: biochemical; format: biochemical
T2 sequence (P12337 19-565): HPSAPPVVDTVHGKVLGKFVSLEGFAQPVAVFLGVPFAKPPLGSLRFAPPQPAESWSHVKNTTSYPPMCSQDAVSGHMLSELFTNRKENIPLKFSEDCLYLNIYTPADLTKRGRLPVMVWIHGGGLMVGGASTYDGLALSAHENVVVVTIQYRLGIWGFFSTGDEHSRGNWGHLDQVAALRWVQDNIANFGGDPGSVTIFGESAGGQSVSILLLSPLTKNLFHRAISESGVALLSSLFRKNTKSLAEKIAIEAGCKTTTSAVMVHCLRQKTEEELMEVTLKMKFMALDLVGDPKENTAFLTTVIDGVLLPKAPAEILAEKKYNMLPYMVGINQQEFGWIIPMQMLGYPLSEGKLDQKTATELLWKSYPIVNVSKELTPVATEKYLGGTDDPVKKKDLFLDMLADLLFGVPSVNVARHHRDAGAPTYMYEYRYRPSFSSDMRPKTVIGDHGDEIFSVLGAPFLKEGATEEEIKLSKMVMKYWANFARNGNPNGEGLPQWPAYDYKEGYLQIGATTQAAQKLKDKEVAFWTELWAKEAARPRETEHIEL

[3] = molecular target: human butyrylcholinesterase (hBuChE) (Homo sapiens, UniProt P06276); assay: biochemical
[4] = molecular target: T3, human acetylcholinesterase (hAcChE) (Homo sapiens, UniProt P22303); assay: biochemical; format: biochemical
T3 construct: purchased Sigma Biochemicals (St. Louis, Mo.)
Method: Data was transferred to GraphPad Prism software, and Ki values were calculated as described in the Example above.

[5] = molecular target: T4, human small intestine carboxylesterase (hiCE) (Homo sapiens, UniProt O00748); assay: biochemical; format: biochemical
T4 sequence (O00748 27-559): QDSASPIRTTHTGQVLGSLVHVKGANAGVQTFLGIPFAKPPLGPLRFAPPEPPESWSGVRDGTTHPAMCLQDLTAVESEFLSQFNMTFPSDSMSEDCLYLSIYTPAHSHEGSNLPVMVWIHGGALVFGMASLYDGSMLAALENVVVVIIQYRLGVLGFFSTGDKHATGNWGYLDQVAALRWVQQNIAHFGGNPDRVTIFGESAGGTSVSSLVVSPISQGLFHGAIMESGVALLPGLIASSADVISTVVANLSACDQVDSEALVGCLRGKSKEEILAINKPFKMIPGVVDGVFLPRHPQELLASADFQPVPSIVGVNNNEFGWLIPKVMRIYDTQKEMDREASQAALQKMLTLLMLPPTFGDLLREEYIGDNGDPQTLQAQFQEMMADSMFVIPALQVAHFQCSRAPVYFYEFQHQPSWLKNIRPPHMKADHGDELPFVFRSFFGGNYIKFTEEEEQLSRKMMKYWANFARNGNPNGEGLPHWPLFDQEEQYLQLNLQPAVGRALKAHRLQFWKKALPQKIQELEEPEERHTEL

[6] = molecular target: T5, human intestinal carboxylesterase in U373MGhiCE cells (Homo sapiens, UniProt O00748); assay: Inhibition of intracellular carboxylesterase in U373MGhiCE cells; format: cell-based
T5 construct: expressed in transfected cells; host or cells: U373MG human glioma cells (U373MGhiCE)
T5 sequence (O00748 27-559): T4 sequence (O00748 27-559)
Method: To monitor the ability of the compounds to cross the cell membrane and inhibit carboxylesterase activity intracellularly, an assay using human tumor cells expressing hiCE was devised. U373MGhiCE (a human glioma cell line transfected with a plasmid expressing hiCE) were plated in T25 flasks and allowed to grow to confluency (approximately 2-5×10^5 cells). Inhibitors were then added at a final concentration of […], and incubation allowed to continue for 1 hour. At this time, the cells were washed extensively with 5 ml of complete media and 2×5 ml of Hanks balanced salt solution, and cell extracts were prepared. Carboxylesterase activity was then determined using o-NPA as a substrate.
Table 8 sets forth the level of intracellular enzyme inhibition following incubation of human glioblastoma tumor cells expressing human intestinal carboxylesterase with 10 μM of each compound identified in Table 3.

[7] = o-NPA as substrate, Table 6, read-out: hCE1 Ki ± SE
[8] = o-NPA as substrate, Table 6, read-out: rCE Ki ± SE
[9] = butyrylthiocholine as substrate, Table 6, read-out: hBuChE Ki
[10] = acetylthiocholine as substrate, Table 6, read-out: hAcChE Ki
[11] = o-NPA as substrate, Table 6, read-out: hiCE Ki ± SE
[12] = o-NPA as substrate, Table 5, read-out: Ki hCE1
[13] = acetylthiocholine substrate, Table 5, read-out: Ki hAcChE
[14] = o-NPA as substrate, Table 5, read-out: Ki hiCE

T3 sequence (P22303 32-614): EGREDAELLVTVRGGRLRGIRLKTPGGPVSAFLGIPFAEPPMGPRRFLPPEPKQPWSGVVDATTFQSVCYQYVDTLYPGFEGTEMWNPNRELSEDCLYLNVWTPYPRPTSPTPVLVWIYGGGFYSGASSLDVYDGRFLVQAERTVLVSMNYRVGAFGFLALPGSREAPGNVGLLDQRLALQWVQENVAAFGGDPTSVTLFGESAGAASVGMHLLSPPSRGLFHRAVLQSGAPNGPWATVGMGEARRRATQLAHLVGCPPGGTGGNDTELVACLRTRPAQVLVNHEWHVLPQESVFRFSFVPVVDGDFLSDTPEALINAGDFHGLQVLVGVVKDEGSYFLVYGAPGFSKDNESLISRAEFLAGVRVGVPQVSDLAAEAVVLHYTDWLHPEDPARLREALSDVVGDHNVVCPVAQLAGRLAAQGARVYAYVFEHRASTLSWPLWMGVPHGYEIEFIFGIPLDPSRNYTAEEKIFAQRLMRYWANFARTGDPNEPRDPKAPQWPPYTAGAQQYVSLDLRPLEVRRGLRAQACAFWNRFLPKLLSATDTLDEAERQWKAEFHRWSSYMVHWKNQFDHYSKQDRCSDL
Sequence of human butyrylcholinesterase (hBuChE) (P06276 29-602): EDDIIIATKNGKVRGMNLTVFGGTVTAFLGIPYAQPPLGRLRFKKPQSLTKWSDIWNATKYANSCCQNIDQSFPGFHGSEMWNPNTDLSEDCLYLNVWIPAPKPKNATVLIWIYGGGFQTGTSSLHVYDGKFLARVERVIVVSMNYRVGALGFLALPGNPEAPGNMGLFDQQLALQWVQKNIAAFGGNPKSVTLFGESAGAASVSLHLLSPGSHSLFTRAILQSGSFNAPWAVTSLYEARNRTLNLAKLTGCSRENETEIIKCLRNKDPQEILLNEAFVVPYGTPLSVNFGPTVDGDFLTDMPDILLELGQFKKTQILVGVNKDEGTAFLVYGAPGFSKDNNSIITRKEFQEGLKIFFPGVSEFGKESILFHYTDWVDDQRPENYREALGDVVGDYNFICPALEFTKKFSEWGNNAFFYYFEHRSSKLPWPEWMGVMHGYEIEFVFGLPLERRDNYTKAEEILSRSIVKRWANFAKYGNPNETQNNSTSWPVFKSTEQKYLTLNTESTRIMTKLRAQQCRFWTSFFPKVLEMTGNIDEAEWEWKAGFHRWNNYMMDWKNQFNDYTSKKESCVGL

Structure (SMILES)	Ki [1, 7] [µM]	Ki [2, 8] [µM]	Ki [3, 9] [µM]	Ki [4] [µM]	Ki [3] [µM]	Ki [4, 10] [µM]	also measured
O=C(C(=O)c1ccc(Br)c([N+](=O)[O-])c1)c1ccc(Br)c([N+](=O)[O-])c1 [Compound 4, 1,2-bis(4-bromo-3-nitrophenyl)ethane-1,2-dione]	> 100	0.0087 ± 0.0013	> 100	> 100			Ki [5]: > 100 µM
COc1ccc(C(=O)C(=O)c2ccccc2Cl)cc1OC [Compound 8, 1-(2-chlorophenyl)-2-(3,4-dimethoxyphenyl)ethane-1,2-dione]	3.3	0.036 ± 0.012			> 100		
O=C(C(=O)c1cc(Br)ccc1O)c1cc(Br)ccc1O [Compound 9, 1,2-bis(5-bromo-2-hydroxyphenyl)ethane-1,2-dione]		0.0535 ± 0.0094	> 100	> 100			Ki [1]: > 100 µM
O=C(C(=O)c1ccc(O)cc1O)c1ccc(O)cc1O [Compound 10, 1,2-bis(2,4-dihydroxyphenyl)ethane-1,2-dione]	> 100	> 100			> 100	> 100	Ki [5, 11]: 1.73 µM
O=C(C(=O)c1ccc([N+](=O)[O-])cc1[N+](=O)[O-])c1ccccc1 [Compound 11, 1-(2,4-dinitrophenyl)-2-phenylethane-1,2-dione]	> 100	0.52 ± 0.031	> 100	> 100			
O=C(C(=O)c1c(Cl)c(Cl)c(Cl)c(Cl)c1Cl)c1c(F)c(F)c(F)c(F)c1F [Compound 12, 1-(pentachlorophenyl)-2-(pentafluorophenyl)ethane-1,2-dione]		0.823 ± 0.215	> 100	> 100			Ki ([1]; read-out: hCE1 Ki ± SE): 1.69 µM
CN(C)c1ccc(C(=O)C(=O)c2ccc(N(C)C)cc2)cc1 [Compound 13, 1,2-bis[4(dimethylamino)phenyl]ethane-1,2-dione]	> 100	2.4	> 100			> 100	Ki [5, 11]: > 100 µM
O=C(C(=O)c1ccc(Br)cc1)c1ccc(Br)cc1 [Compound 15, 1,2-bis(4-bromophenyl)ethane-1,2-dione]	> 100	0.0041 ± 0.0005			> 100	> 100	
O=C(C(=O)c1ccc(Cl)cc1)c1ccc(Cl)cc1 [Compound 18, 1,2-bis(4-chlorophenyl)ethane-1,2-dione]	> 100	0.0141 ± 0.0025			> 100	> 100	
COc1ccc(C(=O)C(=O)c2ccc(OC)cc2)cc1 [Compound 21, 1,2-bis(4-methoxyphenyl)ethane-1,2-dione]	3.41	0.58 ± 0.157			> 100	> 100	
O=C1C=Cc2ccccc2C1=O [Compound 29, Naphthalene-1,2-dione]							inhibition of hCE1 [1]: inhibition; inhibition of rCE [2]: inhibition; inhibition of hAcChE [4]: inhibited; inhibition of hiCE [5]: inhibition
O=C(C(=O)c1ccccc1Cl)c1ccccc1Cl [Compound 30, 1,2-bis(2-chlorophenyl)ethane-1,2-dione]		0.22 ± 0.037	> 100	> 100			Ki ([1]; read-out: hCE1 Ki ± SE): 1.65 µM
O=C(C(=O)c1ccc(Cl)cc1)c1ccccc1 [Compound 31, 1-(4-chlorophenyl)-2-phenylethane-1,2-dione]	0.0474 ± 0.0068	0.0239 ± 0.0029			> 100	> 100	
Cc1ccc(C(=O)C(=O)c2ccccc2)cc1 [Compound 32, 1-(4-methylphenyl)-2-phenylethane-1,2-dione]	0.125 ± 0.015	0.119 ± 0.02	> 100			> 100	
COc1cccc(C(=O)C(=O)c2cccc(OC)c2)c1 [Compound 33, 1,2-bis(3-methoxyphenyl)ethane-1,2-dione]	1.54	0.0721 ± 0.0091			> 100		
O=C(C(=O)c1cccc([N+](=O)[O-])c1)c1cccc([N+](=O)[O-])c1 [Compound 34, 1,2-bis(3-nitrophenyl)ethane-1,2-dione]	18.1		> 100	> 100			Ki ([2]; read-out: rCE Ki ± SE): 0.267 ± 0.03 µM
O=C(C(=O)c1ccc(O)cc1)c1ccc(O)cc1 [Compound 35, 1,2-bis(4-hydroxyphenyl)ethane-1,2-dione]	> 100	> 100			> 100	> 100	Ki [5, 11]: 1.2 µM
O=C(C(=O)c1ccc(O)c([N+](=O)[O-])c1)c1ccc(O)c([N+](=O)[O-])c1 [Compound 36, 1,2-bis(4-hydroxy-3-nitrophenyl)ethane-1,2-dione]			> 100	> 100			Ki [2]: > 100 µM; Ki [5]: > 100 µM
COc1ccc(C(=O)C(=O)c2ccc(OC)c([N+](=O)[O-])c2)cc1[N+](=O)[O-] [Compound 37, 1,2-bis(4-methoxy-3-nitrophenyl)ethane-1,2-dione]			> 100	> 100			Ki [1]: > 100 µM; Ki [5]: > 100 µM
O=C(C(=O)c1ccc(C(=O)C(=O)c2ccccc2)cc1)c1ccccc1 [Compound 38, 1-{4-[oxo(phenyl)acetyl]phenyl}-2-phenylethane-1,2-dione]		0.0061 ± 0.0006				> 100	
COc1cc(OC)c(NC(=O)c2cc3ccccc3cc2O)cc1Cl [Compound 42, N-(5-chloro-2,4-dimethoxyphenyl)-3-hydroxy-2-naphthamide]							Ki [1, 12]: > 100 µM; Ki [4, 13]: > 100 µM; inhibition at 10 µM [6]: 0%; Ki [5, 14]: 0.159 µM
Cc1cccc(C)c1NC(=O)Nc1ccc([N+](=O)[O-])cc1 [Compound 54, N-(2,6-dimethylphenyl)-N′-(4-nitrophenyl)urea]							Ki [1, 12]: > 100 µM; Ki [4, 13]: > 100 µM; inhibition at 10 µM [6]: 0%; Ki [5, 14]: 0.32 µM
Cc1cc([N+](=O)[O-])ccc1NC(=O)Nc1cccc(F)c1 [Compound 55, N-(3-fluorophenyl)-N′-(2-methyl-4-nitrophenyl)urea]							Ki [1, 12]: > 100 µM; Ki [4, 13]: > 100 µM; Ki [5, 14]: 1.28 µM
Cc1cc([N+](=O)[O-])ccc1NC(=O)Nc1ccccc1 [Compound 56, N-(2-methyl-4-nitrophenyl)-N′-phenylurea]							Ki [1, 12]: > 100 µM; Ki [4, 13]: > 100 µM; inhibition at 10 µM [6]: 0%; Ki [5, 14]: 1.52 µM
